In ChEMBL document CHEMBL4387733, “Design, synthesis and biological evaluation of indane derived GPR40 agoPAMs” (Bioorg Med Chem Lett, 2019):
Converted amounts (≈) assume the structure as drawn. The source made the active and inactive calls. No cut-off for these calls is given here.

Tests used:
[1] = molecular target: T1, Free fatty acid receptor 1 (Homo sapiens, UniProt O14842); assay: Positive allosteric modulation of recombinant human GPR40 expressed in HEK293 cells assessed as increase in [3H]-myo-inositol phosphate accumulation measured after 60 mins in presence of 100% human serum by microbeta counting method; format: functional, cell-based
T1 sequence (O14842 whole entry): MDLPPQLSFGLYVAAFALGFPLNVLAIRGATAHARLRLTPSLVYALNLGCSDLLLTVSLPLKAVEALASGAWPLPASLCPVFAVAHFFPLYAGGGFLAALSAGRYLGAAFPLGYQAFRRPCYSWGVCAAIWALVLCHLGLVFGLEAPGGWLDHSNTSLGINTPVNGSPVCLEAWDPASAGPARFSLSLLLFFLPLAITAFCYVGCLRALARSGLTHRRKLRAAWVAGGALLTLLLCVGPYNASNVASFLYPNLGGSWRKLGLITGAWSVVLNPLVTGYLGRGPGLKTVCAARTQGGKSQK

[2] = Protein binding in human plasma assessed as unbound fraction level; format: ADME, cell-free
[3] = molecular target: T1, Free fatty acid receptor 1; assay: Positive allosteric modulation of recombinant human GPR40 expressed in HEK293 cells assessed as increase in [3H]-myo-inositol phosphate accumulation measured after 60 mins in absence of human serum by microbeta counting method relative to control; format: functional, cell-based; parameters: concentration or dose not given beside the values
[4] = molecular target: T1, Free fatty acid receptor 1; assay: Positive allosteric modulation of recombinant human GPR40 expressed in HEK293 cells assessed as increase in [3H]-myo-inositol phosphate accumulation measured after 60 mins in absence of human serum by microbeta counting method; format: functional, cell-based
[5] = molecular target: T1, Free fatty acid receptor 1; assay: Positive allosteric modulation of recombinant human GPR40 expressed in HEK293 cells assessed as increase in [3H]-myo-inositol phosphate accumulation measured after 60 mins in presence of 100% human serum by microbeta counting method relative to control; format: functional, cell-based
[6] = Solubility of the compound in FASSIF; format: physicochemical
[7] = Unbound drug level in Wistar Han rat plasma at 1 mg/kg, iv or 2 mg/kg, po measured at 3 hrs; format: ADME, organism-based; conditions: in vivo
[8] = Total drug level in Wistar Han rat plasma at 1 mg/kg, iv or 2 mg/kg, po measured at 3 hrs; format: ADME, organism-based
[9] = Cmax in Wistar Han rat at 1 mg/kg, iv or 2 mg/kg, po; format: ADME, organism-based; conditions: in vivo
[10] = Oral bioavailability in Wistar Han rat at 2 mg/kg; format: ADME, organism-based; conditions: in vivo
[11] = Half-life in Wistar Han rat at 1 mg/kg, iv or 2 mg/kg, po; format: ADME, organism-based; conditions: in vivo
[12] = Volume of distribution in Wistar Han rat at 1 mg/kg, iv or 2 mg/kg, po; format: ADME, organism-based; conditions: in vivo
[13] = Dose normalized AUC in Wistar Han rat at 2 mg/kg, po; format: ADME, organism-based; conditions: in vivo
[14] = Clearance in Wistar Han rat at 1 mg/kg, iv or 2 mg/kg, po; format: ADME, organism-based; conditions: in vivo
Rattus norvegicus [15] = assay: Hypoglycemic activity in Sprague-Dawley rat assessed as reduction in blood glucose AUC at 3 mg/kg, ip measured after 3 hrs by IPGTT relative to control; format: functional
[16] = Drug level in Wistar Han rat assessed as unbound fraction at 1 mg/kg, iv or 2 mg/kg, po; format: ADME, organism-based; conditions: in vivo
[17] = molecular target: T1, Free fatty acid receptor 1; assay: Agonist activity at GPR40 (unknown origin) assessed as […] in IP1 accumulation; format: functional
Rattus norvegicus [18] = assay: Hypoglycemic activity in Sprague-Dawley rat assessed as reduction in blood glucose AUC at 10 mg/kg, po pretreated for 1 hr followed by glucose challenge by OGTT relative to control; format: functional; parameters: scale not given: the % may be the effect or the level left
Rattus norvegicus [19] = assay: Hypoglycemic activity in Sprague-Dawley rat assessed as reduction in blood glucose AUC at 0.3 mg/kg, po pretreated for 1 hr followed by glucose challenge by OGTT relative to control; format: functional
[20] = Stability of the compound in pH 7.4 potassium phosphate buffer at 10 uM measured after 5 hrs; format: physicochemical; conditions: pH 7.4, 5 h
[21] = Drug metabolism in pH 7.4 potassium phosphate buffer assessed as TAK-875 formation at 10 uM measured after 5 hrs

SMILES | EC50 [1] [nM] | Fu [2] [%] | Activity [3] [%] | EC50 [4] [nM] | Activity [5] [%] | fEC50 [1] [nM] | other results
COc1ccc(F)c(-c2ccc(COc3cccc([C@@H](CC(=O)O)C4CC4)c3)cc2)c1 | > 10000 | 0.05 | – | – | – | – | –
COc1ccc(F)c(-c2ccc3c(c2)CC[C@H]3Oc2cccc([C@H](C3CC3)[C@@H](C)C(=O)O)c2)c1 | > 10000 | – | 377 | 59 | – | – | –
COc1ccc(F)c(-c2ccc3c(c2)CC[C@H]3Oc2cccc([C@@H](CC(=O)O)C3CC3)c2)c1 | 5950 | – | 352 | – | 131 | 3.7 | –
COc1ccc(F)c(-c2ccc([C@@H]3CCc4ccc([C@H](C5CC5)[C@H](C)C(=O)O)cc4O3)cc2)c1 | – | – | – | – | – | – | solubility [6]: 125 µM (≈ 57.6 µg/mL)
COc1ccc(F)c(-c2cc(F)c3c(c2)CC[C@H]3Oc2cccc([C@@H](CC(=O)O)C3CC3)c2)c1 | > 10000 | – | 224 | – | – | – | –
COc1cc(-c2ccc3c(c2)CC[C@H]3Oc2cccc([C@H](C3CC3)[C@H](C)C(=O)O)c2F)c(F)cn1 | 245 | 0.05 | 342 | 2 | 318 | 0.08 | Cp(f) [7]: 0.3 nM; concentration at 3 h [8]: 600 nM; Cmax [9]: 6300 nM; bioavailability [10]: > 100%; half-life [11]: 5.1 h; Vd [12]: 0.78 L/kg; AUC/dose [13]: 36.2 µM·h; clearance [14]: 2.9 mL/min/kg; inhibition in vivo at 3 mg/kg (Rattus norvegicus [15]): 49%; Fu [16]: 0.05%
COc1cc(-c2ccc3c(c2)CC[C@H]3Oc2cccc([C@H](C3CC3)[C@H](C)C(=O)O)c2)c(F)cn1 | 867 | 0.03 | 472 | 3 | 446 | 0.26 | Cp(f) [7]: 0.57 nM; concentration at 3 h [8]: 1900 nM; Cmax [9]: 10700 nM; bioavailability [10]: 54%; half-life [11]: 3.9 h; Vd [12]: 0.18 L/kg; AUC/dose [13]: 99.9 µM·h; clearance [14]: 0.6 mL/min/kg; inhibition in vivo at 3 mg/kg (Rattus norvegicus [15]): 94%; Fu [16]: 0.03%
COc1ccc(F)c(-c2ccc3c(n2)CC[C@H]3Oc2cccc([C@H](C3CC3)[C@H](C)C(=O)O)c2)c1 | > 10000 | – | 366 | 151 | – | – | –
COc1ccc(F)c(-c2cc3c(cn2)[C@H](Oc2cccc([C@H](C4CC4)[C@H](C)C(=O)O)c2)CC3)c1 | 3320 | 0.13 | 457 | – | 221 | 4.3 | fold change (FC) [17]: < 100
O=C1NC(=O)C(C2CCOc3cc(Oc4ccc(C(F)(F)F)cc4Cl)ccc32)S1 (centres undefined) | – | – | – | – | – | – | Activity (Rattus norvegicus [18]): 97%
CC#C[C@@H](CC(=O)O)c1ccc(OCc2cccc(-c3ccc(C(F)(F)F)cc3)c2)cc1 | – | – | – | – | – | – | Activity (Rattus norvegicus [19]): Active
COc1ccc(F)c(-c2ccc3c(c2)CC[C@H]3Oc2cccc([C@H](C3CC3)[C@H](C)C(=O)O)c2F)c1 | 127 | 0.02 | 395 | 3 | 264 | 0.03 | Cp(f) [7]: 0.5 nM; concentration at 3 h [8]: 2500 nM; Cmax [9]: 2900 nM; bioavailability [10]: > 100%; half-life [11]: 3.1 h; Vd [12]: 0.85 L/kg; AUC/dose [13]: 9.3 µM·h; clearance [14]: 2.8 mL/min/kg; inhibition in vivo at 3 mg/kg (Rattus norvegicus [15]): 10%; Fu [16]: 0.02%
Cc1cc(OCCCS(C)(=O)=O)cc(C)c1-c1cccc(COc2ccc3c(c2)OC[C@H]3CC(=O)OC2O[C@H](C(=O)O)[C@@H](O)[C@H](O)[C@H]2O)c1 (some centres undefined) | – | – | – | – | – | – | Stability [20]: Unstable; Drug metabolism [21]: Metabolite detected
COc1ccc(F)c(-c2ccc3c(c2C2=CCCC2(C)C)CC[C@H]3Oc2cccc([C@H](C3CC3)[C@H](C)C(=O)O)c2)c1 | 5450 | – | 101 | 326 | 110 | 2.3 | –
COc1ccc(F)c(-c2ccc3c(c2)OC[C@@H]3Oc2cccc([C@@H](CC(=O)O)C3CC3)c2)c1 | 7350 | 0.9 | 291 | 16 | 138 | 66 | –
COc1ccc(F)c(-c2ccc3c(c2F)CC[C@H]3Oc2cccc([C@H](C3CC3)[C@H](C)C(=O)O)c2)c1 | 810 | – | 352 | 3.9 | 297 | 0.32 | –
COc1ccc(F)c(-c2ccc3c(c2)CC[C@@H]3Oc2cccc([C@H](C3CC3)[C@H](C)C(=O)O)c2)c1 | 5490 | – | 339 | 60 | 84 | 0.6 | –
COc1ccc(F)c(-c2cnc3c(c2)CC[C@H]3Oc2cccc([C@H](C3CC3)[C@H](C)C(=O)O)c2)c1 | 4900 | 0.16 | 159 | – | 107 | 7.8 | –
COc1cc(-c2ccc3c(c2)CC[C@H]3Oc2cccc([C@H](C3CC3)[C@H](C)C(=O)O)c2)ccn1 | 3550 | 0.04 | 448 | 11 | 372 | 3.2 | –
Cc1cc(OCCCS(C)(=O)=O)cc(C)c1-c1cccc(COc2ccc3c(c2)OC[C@H]3CC(=O)O)c1 | – | – | – | – | – | – | Activity (Rattus norvegicus [19]): Active
COc1ccc(F)c(-c2cc3c(cc2F)[C@H](Oc2cccc([C@H](C4CC4)[C@H](C)C(=O)O)c2)CC3)c1 | > 10000 | – | 224 | 155 | – | – | –
